Assay results as given in patent US11472766B2, “Lipid nanoparticle composition” (Suzhou Abogen Biosciences Co., Ltd., priority 2020, dated 2022).

Assays:
[1] = tested on: human erythropoietin (hEPO) mRNA; experiment: Animal study: hEPO expression after tail vein injection of LNPs encapsulating hEPO mRNA (serum ELISA); type: in vivo; details: hEPO level, female ICR mice, 0.5 mg/kg, 6 hours post administration, class symbols, Table 3
In short: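 Female ICR mice (6-8 weeks) received LNPs carrying hEPO mRNA by tail vein injection at 0.5 mg/kg, with MC3 LNPs dosed the same way as positive control. Blood was drawn at set times (e.g., 6 h) and serum separated. hEPO was quantified by ELISA and reported as μg/ml.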

[2] = Apparent pKa of LNP formulations (TNS fluorescence assay); details: LNP cationic lipid/DSPC/cholesterol/DMG-PEG 50/10/38.5/1.5 mol %, Table 3
[3] = Encapsulation efficiency of lipid nanoparticles (Quant-it Ribogreen RNA quantification assay); type: physicochemical; details: LNP encapsulating hEPO mRNA; Table 3
In short: (§1)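 Lipids 50:10:38.5:1.5 (cationic:DSPC:chol:PEG) in EtOH + mRNA in citrate pH 4, 1:3 vol, microfluidic, 9–30 mL/min; total lipid:mRNA ~10:1–30:1 w/w. Dialysis to DPBS, 0.2 μm filter. DLS 173° backscatter; Ribogreen encapsulation.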

[4] = Lipid nanoparticle size by dynamic light scattering (Malvern Zetasizer Nano ZS); type: physicochemical; details: LNP: cationic lipid/DSPC/cholesterol/PEG-lipid 50:10:38.5:1.5, hEPO mRNA; Table 3
In short: as §1

| Apparant Pka [2] | Encapsulation Efficiency [3] | polydispersity [4] | size nm [4] | SMILES | Expression at 6 h (μg/ml) [1] |
| --- | --- | --- | --- | --- | --- |
| 6.984 | 96.9% | 0.061 | 64.66 nm | CCCCCCCCC(CCCCCC)COC(=O)NCCCCN(CCCCNC(=O)OCC(CCCCCC)CCCCCCCC)CCN(CCO)C1CCCCC1 (stereo not shown) [Compound 124] | A (≥2) |
| 6.833 | 95.6% | 0.116 | 72.36 nm | CCCCCCCCC(CCCCCC)COC(=O)NCCCCN(CCCCNC(=O)OCC(CCCCCC)CCCCCCCC)CCN(CCO)C1CCCC1 (stereo not shown) [Compound 125] | A (≥2) |
| 6.668 | 90.6% | 0.083 | 109.90 nm | CCCCCCCCC(CCCCCC)CNC(=O)CCCCCN(CCCCCC(=O)OCC(CCCCCC)CCCCCCCC)CCN(CCC)C1CCC(O)CC1 (stereo not shown) [Compound 133] | A (≥2) |
| 6.442 | 87.9% | 0.033 | 105.50 nm | CCCCCCCCC(CCCCCC)CNC(=O)CCCCCN(CCCCCC(=O)NCC(CCCCCC)CCCCCCCC)CCN(CCO)C1CC(O)C1 (stereo not shown) [Compound 134] | A (≥2) |
| 6.652 | 85.6% | 0.035 | 104.1 nm | CCCCCCCCC(CCCCCC)CNC(=O)CCCCCN(CCCCCC(=O)NCC(CCCCCC)CCCCCCCC)CCN(CCC)C1CCC(O)CC1 (stereo not shown) [Compound 135] | C (≥0.1 and <1) |
| 6.751 | 95.29% | 0.029 | 60.84 nm | CCCCCCCCC(CCCCCCCC)CNC(=O)CCCCCN(CCCCCC(=O)NCC(CCCCCCCC)CCCCCCCC)CCN(CCO)C1CCCCC1 [Compound 137] | A (≥2) |
| 6.688 | 94.50% | 0.013 | 63.52 nm | CCCCCCCCC(CCCCCCCC)CNC(=O)CCCCCN(CCCCCC(=O)OCC(CCCCCCCC)CCCCCCCC)CCN(CCO)C1CCCCC1 [Compound 138] | A (≥2) |
| 6.518 | 92.64% | 0.052 | 67.31 nm | CCCCCCCCC(CCCCCCCC)CNC(=O)CCCCCN(CCCCCC(=O)OCC(CCCCCCCC)CCCCCCCC)CCN(CCO)C1CCCCCC1 [Compound 139] | A (≥2) |
| 6.981 | 83.4% | 0.075 | 138.7 nm | CCCCCCC(CCCCCC)CNC(=O)CCCCCN(CCCCCC(=O)OCC(CCCCCC)CCCCCC)CCN(CCO)C1CCCC1 [Compound 140] | A (≥2) |
| 6.766 | 89.1% | 0.036 | 71.93 nm | CCCCCCC(CCCCCC)CNC(=O)CCCCCN(CCCCCC(=O)OCC(CCCCCC)CCCCCC)CCN(CCO)C1CCCCCC1 [Compound 141] | A (≥2) |
| 6.678 | 85.3% | 0.027 | 81.13 nm | CCCCCCC(CCCCCC)CC(=O)NCCCCCN(CCCCCOC(=O)CC(CCCCCC)CCCCCC)CCN(CCO)C1CCCCCC1 [Compound 142] | A (≥2) |
| 6.836 | 93.2% | 0.032 | 58.61 nm | CCCCCCCCC(CCCCCCCC)CC(=O)NCCCCCN(CCCCCOC(=O)CC(CCCCCCCC)CCCCCCCC)CCN(CCO)C1CCCC1 [Compound 143] | A (≥2) |
| 6.794 | 95.0% | 0.035 | 64.08 nm | CCCCCCCCC(CCCCCCCC)CC(=O)NCCCCCN(CCCCCNC(=O)CC(CCCCCCCC)CCCCCCCC)CCN(CCO)C1CCCCCC1 [Compound 144] | A (≥2) |
| 6.634 | 93.1% | 0.04 | 61.5 nm | CCCCCCCCC(CCCCCCCC)CC(=O)NCCCCCN(CCCCCOC(=O)CC(CCCCCCCC)CCCCCCCC)CCN(CCO)C1CCCCCC1 [Compound 145] | A (≥2) |
| 7.496 | 94.6% | 0.052 | 66.27 nm | CCCCCCCCCCCOC(=O)CCCCCN(CCCCCC(=O)NCC(CCCCCCCC)CCCCCCCC)CCN(CCO)C1CCC1 [Compound 146] | B (≥1 and <2) |
| 7.304 | 91.4% | 0.082 | 69.58 nm | CCCCCCCCCCCOC(=O)CCCCCN(CCCCCC(=O)NCC(CCCCCCCC)CCCCCCCC)CCN(CCO)C1CCCC1 [Compound 147] | A (≥2) |
| 7.146 | 85.6% | 0.046 | 83.84 nm | CCCCCCCCCCCOC(=O)CCCCCN(CCCCCC(=O)NCC(CCCCCCCC)CCCCCCCC)CCN(CCO)C1CCCCC1 [Compound 148] | A (≥2) |
| 6.810 | 86.3% | 0.07 | 72.85 nm | CCCCCCCCCCCOC(=O)CCCCCN(CCCCCC(=O)NCC(CCCCCCCC)CCCCCCCC)CCN(CCO)C1CCCCCC1 [Compound 149] | B (≥1 and <2) |
| 6.918 | 93.5% | 0.06 | 66.33 nm | CCCCCCCCOC(CCCCCN(CCCCCC(=O)NCC(CCCCCC)CCCCCC)CCN(CCO)C1CCC1)OCCCCCCCC [Compound 150] | A (≥2) |
| 6.948 | 94.0% | 0.061 | 73.86 nm | CCCCCCCCCCCOC(=O)CCCCCN(CCCCCC(=O)NCC(CCCCCCCC)CCCCCCCC)CCN(CCO)C1CC1 [Compound 151] | C (≥0.1 and <1) |
| 6.686 | 88.2% | 0.026 | 92.17 nm | CCCCCCC(CCCCCC)CC(=O)NCCCCCN(CCCCCOC(=O)CC(CCCCCC)CCCCCC)CCN(CCO)C1CCCCC1 [Compound 152] | A (≥2) |
| 6.621 | 85.5% | 0.059 | 107.4 nm | CCCCCCC(CCCCCC)CC(=O)NCCCCCN(CCCCCOC(=O)CC(CCCCCC)CCCCCC)CCN(CCO)C1CC1 [Compound 153] | A (≥2) |
| 6.836 | 88.4% | 0.068 | 104.8 nm | CCCCCCC(CCCCCC)CC(=O)NCCCCCN(CCCCCOC(=O)CC(CCCCCC)CCCCCC)CCN(CCO)C1CCCC1 [Compound 154] | A (≥2) |
